According to ChEMBL document CHEMBL1144739, “[6]-gingerol induces Ca2+ mobilization in Madin-Darby canine kidney cells” (2008):
The source made the active and inactive calls. No cut-off for these calls is given here.

Experiments:
MDCK [1] = assay: Activation of protein kinase C in dog MDCK cells assessed as change in intracellular calcium level in presence of phorbol myristate acetate; type: cell-based; conditions: Canis lupus familiaris
MDCK [2] = assay: Inhibition of phospholipase C in dog MDCK cells assessed as change in basal intracellular calcium level in presence of U73122; type: cell-based; conditions: Canis lupus familiaris
MDCK [3] = assay: Increase in drug-induced intracellular calcium level in dog MDCK cells at 0.1 uM; type: functional, cell-based; conditions: Canis lupus familiaris
MDCK [4] = assay: Inhibition of drug-induced intracellular calcium level in dog MDCK cells at 20 uM in absence of extracellular calcium; type: functional, Canis lupus familiaris; set-up: scale not given: the % may be the effect or the level left
MDCK [5] = assay: Increase in drug-induced intracellular calcium level in dog MDCK cells at 10 uM after 250 seconds; type: functional, Canis lupus familiaris
MDCK [6] = assay: Increase in drug-induced intracellular calcium level in dog MDCK cells in presence of extracellular calcium; type: functional, cell-based; conditions: Canis lupus familiaris
MDCK [7] = assay: Inhibition of protein kinase C in dog MDCK cells assessed as change in intracellular calcium level in presence of GF109203 X; type: cell-based; conditions: Canis lupus familiaris
MDCK [8] = assay: Elevation of drug-induced intracellular calcium level in MDCK cells at 1 uM; type: functional, Canis lupus familiaris

| SMILES | Activity (MDCK [1]) | Activity (MDCK [2]) | Activity (MDCK [3]) | Activity (MDCK [4]) | Activity (MDCK [5]) | Activity (MDCK [6]) | Activity (MDCK [7]) | Activity (MDCK [8]) |
| --- | --- | --- | --- | --- | --- | --- | --- | --- |
| CCCCC[C@H](O)CC(=O)CCc1ccc(O)c(OC)c1 [GINGEROL] | Active | inactive | inactive | 78% | 295 nM | Dose-dependent effect | Active |  |
| C/C=C(/C)C(=O)O[C@H]1C(C)=C2[C@H]([C@@H]1OC(=O)CCCCCCC)[C@@](C)(OC(C)=O)C[C@H](OC(=O)CCC)[C@@]1(O)[C@H]2OC(=O)[C@@]1(C)O [THAPSIGARGIN] |  |  |  |  |  |  |  | 216 nM |
